Data: paper PMC7211193, “Evaluation of absorption, distribution, metabolism, and excretion of [^14C]-rucaparib, a poly(ADP-ribose) polymerase inhibitor, in patients with advanced solid tumors” (Investigational New Drugs, 2019)
Where “and” joins values, the source holds several entries; their conditions need not be identical. Identical values can stand only once.

Tests used:
[1] = Total radioactivity (TRA) pharmacokinetics in plasma and blood by liquid scintillation counting; assay type: in vivo, human; conditions: for Cmax, total radioactivity in plasma: patients N = 6
Protocol: (§1) Six patients received a single oral dose of [^14C]-rucaparib 600 mg (approximately 5.18 MBq or 140 μCi) on day 1 after fasting for 10 h and were confined at the study site for the collection of blood samples and excreta for a maximum of 12 days.
Blood samples were collected in K2 ethylenediaminetetraacetic acid (K2-EDTA) tubes at the following time points: 0 (predose), 1, 2, 3, 4, 8, 12, 24, 48, 72, 96, 120, and 144 h after administration. Blood samples were taken via an indwelling intravenous catheter or by direct vein puncture into appropriate tubes. Aliquots of blood samples were centrifuged at 1600–2000×g for 10 min at 4 °C, and supernatants were collected for plasma samples. All plasma and blood samples were stored at −70 °C until analysis. Plasma and blood samples were evaluated for total radioactivity (TRA) by liquid scintillation (LSC), parent drug concentrations by liquid chromatography (LC) with tandem mass spectrometry (MS/MS) analyses, and metabolite profiling by LC coupled to diode array ultraviolet (UV) detection and MS or radioactivity detection.
(§2) TRA analysis was performed on a Liquid Scintillation Counter Tri-Carb Model 3100TR (PerkinElmer). Aliquots of blood (300 μL), plasma (250 μL), and urine (1 mL) were transferred to scintillation vials. Blood samples were incubated at ≥60 °C with SOLVABLE (1 mL). After cooling to room temperature, EDTA (0.1 M, 100 μL) and hydrogen peroxide (225 μL) were added to dissolve blood cells, reduce foaming, and decrease color intensity. Finally, after incubation at ≥45 °C and ≥60 °C, Ultima Gold (≥5-fold) was added, and the samples were analyzed with LSC. For urine samples, Ultima Gold (≥5-fold) was added, and the samples were analyzed with LSC.
Blood and plasma TRA data and the plasma concentration of rucaparib were used to determine the Cmax, tmax, AUC from time zero to time of last measurable concentration (AUC0-t), and AUC from time zero to infinity (AUC0-inf), apparent volume of distribution (Vd/F), apparent clearance (CL/F), and terminal half-life (t1/2). Phoenix WinNonlin software version 6.3 or higher (Certara, Princeton, NJ, USA) was used to run a noncompartmental method analysis on the PK data.

[2] = Mass balance: recovery of radioactivity in urine and feces; assay type: in vivo, human
Protocol: as §1
For the purposes of the mass balance study and metabolite profiling, urine and fecal samples were collected during predetermined intervals. Urine was collected at time 0 (predose), 0–6, 6–12, and 12–24 h, and daily per 24-h interval from day 2 to day 12. Urine was collected in 3-L polyethylene containers and stored at 4 °C for the duration of the collection period. After each collection period, urine samples were mixed thoroughly, weighed, portioned into aliquots in polypropylene tubes, and then frozen at or below −70 °C until metabolite profiling and TRA analyses by LSC. Feces were collected daily in 24-h intervals from predose to day 12. Feces collections were kept at or below −20 °C. Sample pretreatment involved diluting and homogenizing the feces by adding water (1–2 weight equivalents). An Ultra-Turrax mixer (IKA, Staufen im Breisgau, Germany) was used to homogenize the samples before aliquoting. Separate aliquots of fecal homogenate were transferred to polypropylene tubes. Aliquots for radioactivity measurement by LSC were stored at or below −20 °C until analysis, whereas aliquots for metabolite profiling were stored at −70 °C until analysis.
Patients 01, 05, and 09 were confined to the study site for sample collections for 12 days, but Patients 03, 06, and 08 were discharged earlier per protocol because cumulative recovery of radioactivity from these patients exceeded 90% of the administered dose or the radioactivity in urine and feces was <1% of the administered dose over a 24-h period on 2 consecutive days.
as §2
Fecal samples were processed further and combusted before LSC analyses. Aliquots (≈500 mg) of the fecal homogenates were dried in an oven (50 °C). Combustaid (100 μL) was added to the dry homogenates and the sample was combusted in a Sample Oxidizer Model 307 (PerkinElmer). Carbo-Sorb E (7 mL) was used as an absorber agent for the [^14C]-carbon dioxide that was generated during combustion. At the end of the combustion cycle, the absorber was mixed with 13 mL of the scintillant PermaFluor E. After combustion, TRA of fecal aliquots was determined by LSC as described for urine samples.
For the vomit sample collected from Patient 01 (clear vomitus) the urine method was used, and for Patient 05 (not clear vomitus) the feces method was used.

[3] = cited from earlier work
[4] = single oral [14C]-rucaparib 600 mg, N = 6, mean ± SD
[5] = single oral [14C]-rucaparib 600 mg, N = 6, mean ± SD, listed as rucaparib
[6] = single oral [14C]-rucaparib 600 mg, N = 6, median (range)
[7] = within 12 days post dose, mean ± SD, N = 6
[8] = single oral 600 mg, versus fasted

Which “AUC0-24h/AUC0-inf ratio, blood TRA” value ([1]; in vivo) does the source give for `CNCc1ccc(-c2[nH]c3cc(F)cc4c3c2CCNC4=O)cc1` [Rucaparib, rucaparib] here?
The value was 0.563.

And the “AUC0-24h/AUC0-inf ratio, plasma TRA” value ([1]; in vivo)?
Its value is 0.461.

What about the “AUC0-inf, total radioactivity in blood” value [1, 4] of the same molecule?
The value was 25,500 ± 5510 ng Eq h/mL.

What about the “AUC0-inf, total radioactivity in plasma” value [1, 4] of the same molecule?
The value was 30,000 ± 7810 ng Eq h/mL.

What about the “AUC0-t, total radioactivity in blood” value [1, 4] of the same molecule?
Its value is 18,100 ± 5460 ng Eq h/mL.

What about the “AUC0-t, total radioactivity in plasma” value [1, 4] of the same molecule?
Its value is 24,100 ± 8580 ng Eq h/mL.

What about the “Blood to plasma ratio of total radioactivity, AUC0-inf” value [1, 4] of the same molecule?
Its value is 0.781 ± 0.041.

And the “Blood to plasma ratio of total radioactivity, Cmax” value [1, 4]?
The value was 1.00 ± 0.12.

What about the “CL/F, total radioactivity in blood” value [1, 4] of the same molecule?
Its value is 22.6 ± 2.22 L/h.

And the “CL/F, total radioactivity in plasma” value [1, 4]?
Its value is 19.6 ± 4.83 L/h.

What about the “Cmax, total radioactivity in blood” value [1, 4] of the same molecule?
The value was 882 ± 355 ng Eq/mL.

What about the “Vd/F, total radioactivity in blood” value [1, 4] of the same molecule?
The value was 911 ± 246 L.

What about the “Vd/F, total radioactivity in plasma” value [1, 4] of the same molecule?
Its value is 814 ± 129 L.

And the “t1/2, total radioactivity in blood” value [1, 4]?
The value was 28.3 ± 8.49 h.

And the “t1/2, total radioactivity in plasma” value [1, 4]?
The value was 30.4 ± 8.89 h.

What about the “Blood to plasma ratio of total radioactivity, Cmax” value [1, 5] of the same molecule?
Its value is 1.0.

And the “t1/2, total radioactivity in blood” value [1, 5]?
The value was over 25 h.

And the “t1/2, total radioactivity in plasma” value [1, 5]?
The value was > 25 h and 30.4 h.

What about the “tmax, total radioactivity in blood” value [1, 6] of the same molecule?
The value was 4 (0.933–8.00) h.

What about the “tmax, total radioactivity in plasma” value [1, 6] of the same molecule?
The value was 4 (0.933–8.00) h.

And the “tmax, total radioactivity in blood” value ([1]; single oral [14C]-rucaparib 600 mg, N = 6, median (range), listed as [^14C]-rucaparib)?
The value was “approximately 4 h”.

What about the “tmax, total radioactivity in blood” value ([1]; single oral [14C]-rucaparib 600 mg, N = 6, median (range), listed as rucaparib) of the same molecule?
Its value is 4 h.

What about the “Cmax, total radioactivity in plasma” value ([1]; single oral [14C]-rucaparib 600 mg, mean ± SD) of the same molecule?
Its value is 880 ± 309 ng Eq/mL.

And the “Cmax, total radioactivity in plasma” value ([1]; single oral [14C]-rucaparib 600 mg, mean ± SD, listed as rucaparib)?
The value was 880 ng Eq/mL.

And the “Cumulative recovery of the actual dose, Patient 01” value ([2]; Patient 01, dose corrected for loss by vomiting)?
The value was 86.5%.

And the “Dose recovery in feces, patient who lost 0.03% of dose by vomiting” value ([2]; Patient 05)?
The value was 62.2%.

And the “Dose recovery in urine, patient who lost 0.03% of dose by vomiting” value ([2]; Patient 05)?
The value was 10.9%.

What about the “Cumulative dose recovery, patient who lost 0.03% of dose by vomiting (lowest recovery)” value ([2]; Patient 05, urine plus feces) of the same molecule?
Its value is 73.1%.

What about the bioavailability ([2]; human, urine and feces, po, 600 mg, radioactivity in urine plus radioactivity recovered as metabolites in feces, read-out: Oral bioavailability suggested by the current study) of the same molecule?
Its bioavailability is at least 21%.

What about the “Time by which 90% of the observed urinary recovery was achieved” value ([2]; post dose) of the same molecule?
Its value is at most 120 h.

What about the “Time within which 90% of the observed fecal recovery was found” value ([2]; post dose) of the same molecule?
Its value is at most 168 h.

What about the “Recovery of administered radioactive dose in feces” value [2, 7] of the same molecule?
The value was 71.9%.

What about the “Recovery of administered radioactive dose in urine” value [2, 7] of the same molecule?
Its value is 17.4%.

What about the “Total recovery of administered radioactive dose in excreta” value [2, 7] of the same molecule?
Its value is 89.3%.

And the “Accumulation at steady state” value ([3]; 600 mg BID)?
Its value is “approximately four-fold”.

What about the “Time of dosing to achieve steady state” value ([3]; 600 mg BID) of the same molecule?
Its value is 1 week.

And the “Dose proportionality of plasma exposure” value ([3]; 40–500 mg QD and 240–840 mg BID)?
Its value is “dose proportional”.

What about the “Median tmax, QD dosing” value ([3]; 40–500 mg once daily, Study 10) of the same molecule?
Its value is 1.5 to 6.0 h.

And the “Median tmax, BID dosing” value ([3]; 240–840 mg twice daily, Study 10)?
The value was 1.5 to 4.0 h.

And the “Apparent steady-state clearance, BID dosing” value ([3]; Study 10)?
The value was 26.2 to 58.6 L/h.

What about the “Apparent steady-state clearance, QD dosing” value ([3]; Study 10) of the same molecule?
Its value is 26.7 to 47.5 L/h.

And the “Increase of AUC by a high-fat meal” value [3, 8]?
The value was 38%.

What about the “Increase of Cmax by a high-fat meal” value [3, 8] of the same molecule?
Its value is 20%.

And the “t1/2 in a previous clinical trial” value ([3]; single oral dose, dose range 40–500 mg)?
Its value is 11 to 29.8 h.
